One data set can be described thus: Stability in rat plasma. The format is in vitro ADME. Conditions: both sexes, pooled, SD rat plasma, EDTA, 37° C., up to 24 hours, read-out: t1/2: Rat Plasma EDTA. The protocol: Peptides of interest (20 μM) were incubated with pre-warmed rat plasma (SD rat, mixed gender pooled, EDTA, filtered through 0.22 μm, BioreclamationIVT) at 37° C. Aliquots were taken at various time points up to 24 hours (e.g. 0, 0.25, 1, 3, 6 and 24 hr), and immediately quenched with 4 volumes of organic solvent (acetonitrile/methanol (1:1) and 0.1% formic acid, containing 1 μM internal standard). Quenched samples were stored at 4° C. until the end of the experiment and centrifuged at 4,000 rpm for 10 minutes. The supernatant were diluted 1:1 with deionized water and analyzed using LC-MS. Percentage remaining at each time point was calculated based on the peak area ratio (analyte over internal standard) relative to the initial level at time zero. Half-lives were calculated by fitting to a first-order exponential decay equation using GraphPad.

A short description of data set [1]: Stability in cynomolgus monkey fecal homogenate (anaerobic). The format is in vitro ADME. To be noted: pH 6.8, 20% cynomolgus monkey fecal homogenate, 37° C., up to 24 hours, read-out: t1/2: Monkey Feces anaerobic (converted). The protocol:
(§1) Studies were carried out in human or cynomolgus monkey fecal homogenate to evaluate gastrointestinal stability of the peptide inhibitors of the present invention.
(§2) Fecal homogenate ([…]) was prepared by adding 4 mL of growth medium (1 liter contains 2 g peptone water powder, 2 g yeast extract, 0.1 g NaCl, 0.04 g KH2PO4, 0.01 g CaCl2.6H2O, 0.01 g MgSO4.7H2O, 2 mL Tween 80, 0.5 g bile salts, 0.5 g L-cysteine HCl, 2 g NaHCO3, and 10 μL Vitamin K, pH adjusted to 6.8, and sterilized by filtration through a 0.22 μm filter) to every gram of feces (pooled freshly collected human or cynomolgus monkey feces). The suspension was vortexed to break up large clumps, and homogenized using a bead mill homogenizer. Centrifuged the homogenate at 2800×g for 15 min. The supernatant is taken out and used for incubations. DMSO stocks (10 mM) were first prepared for the test compounds. Incubations were performed in an anaerobic chamber conditioned at 37° C. Aliquots of the DMSO solutions were dosed into 1.0 mL aliquots of 20% fecal homogenate, which are pre-warmed to 37° C. The final test compound concentration was 20 μM. At each timepoint (0, 20 min, 1, 3, 6, or 24 hours), 100 μL aliquot of each incubation mixture is taken out and added to separate tubes containing 300 μL of 50% acetonitrile/50% methanol and an internal standard to terminate the reaction. Samples were taken out of the anaerobic chamber and stored at 4° C. until the end of the experiment. After the final timepoint is sampled, the tubes were mixed and then centrifuged at 3,000 rpm for 10 minutes. Aliquots of the supernatant were removed, diluted 1:1 into distilled water containing 0.1% formic acid, and analyzed by LC/MS/MS. Percent remaining at each timepoint was calculated based on the peak area response ratio of test to compound to internal standard. Time 0 was set to 100%, and all later timepoints were calculated relative to time 0. Half-lives were calculated by fitting to a first-order exponential decay equation using Graphpad or Excel.

A short description of data set [2]: Stability in human fecal homogenate (anaerobic). It counts as in vitro ADME. To be noted: pH 6.8, 20% human fecal homogenate, 37° C., up to 24 hours, read-out: t1/2: Human Feces anaerobic. The protocol:
as §1, §2

Data set [3] relates to Natural killer (NK) cells. The format is cell-based, human. From the text:
Where not shown, data was not yet determined.

The nature of data set [4]: Stability in simulated intestinal fluid (SIF). To be noted: 37° C.; for half-life at 20 μM: pH 6.8, 100 fold dilution of standard SIF concentration, read-out: SIF t1/2 (converted); for SIF t1/2: 100 fold dilution of standard SIF concentration, 20 μM. It counts as in vitro ADME. The protocol: Studies were carried out in simulated intestinal fluid (SIF) and simulated gastric fluid (SGF) to evaluate gastric stability of the peptide inhibitors of the present invention. In addition, studies were carried out to assess redox stability of the peptide inhibitors of the present invention.
SIF was prepared by adding 6.8 g of monobasic potassium phosphate and 10.0 g of pancreatin to 1.0 L of water. After dissolution, the pH was adjusted to 6.8 using NaOH. DMSO stocks (2 mM) were first prepared for the test compounds. Aliquots of the DMSO solutions were dosed into 6 individual tubes, each containing 0.5 mL of SIF, which is pre-warmed to 37° C. The final test compound concentration was 20 μM. The vials were kept in a benchtop Thermomixer® for the duration of the experiment. At each timepoint (0, 5, 10, 20, 40, 60, or 360 minutes or 24 hours), 1.0 mL of acetonitrile containing 1% formic acid was added to one vial to terminate the reaction. Samples were stored at 4° C. until the end of the experiment. After the final timepoint is sampled, the tubes were mixed and then centrifuged at 3,000 rpm for 10 minutes. Aliquots of the supernatant were removed, diluted 1:1 into distilled water containing internal standard, and analyzed by LCMS/MS. Percent remaining at each timepoint was calculated based on the peak area response ratio of test to compound to internal standard. Time 0 was set to 100%, and all later timepoints were calculated relative to time 0. Half-lives were calculated by fitting to a first-order exponential decay equation using Graphpad.

Data set [5] addresses T1, interleukin-23 receptor (IL-23R), human (human, UniProt Q5VWK5 24-629).
T1 sequence (looked up): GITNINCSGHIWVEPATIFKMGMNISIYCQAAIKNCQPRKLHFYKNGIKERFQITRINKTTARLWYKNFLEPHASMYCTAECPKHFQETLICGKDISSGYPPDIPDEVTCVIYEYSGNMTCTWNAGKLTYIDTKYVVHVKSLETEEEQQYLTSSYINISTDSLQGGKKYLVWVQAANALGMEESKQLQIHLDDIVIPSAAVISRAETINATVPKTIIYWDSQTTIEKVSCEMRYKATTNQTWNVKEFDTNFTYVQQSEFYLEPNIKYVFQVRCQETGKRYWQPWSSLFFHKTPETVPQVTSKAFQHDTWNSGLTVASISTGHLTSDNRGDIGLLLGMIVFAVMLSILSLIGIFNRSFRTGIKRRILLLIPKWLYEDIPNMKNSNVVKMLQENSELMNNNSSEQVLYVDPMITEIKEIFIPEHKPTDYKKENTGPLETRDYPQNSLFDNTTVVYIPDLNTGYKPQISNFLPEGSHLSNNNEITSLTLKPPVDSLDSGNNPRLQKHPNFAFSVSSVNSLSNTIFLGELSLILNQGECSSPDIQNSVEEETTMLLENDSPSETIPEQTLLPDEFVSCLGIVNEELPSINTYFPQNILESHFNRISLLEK
Kind of data set: cell-based or functional assay.

*1 amine or outer side, *2 acyl side, *3 side chain or, on linkers, in order; H or OH if unused. Where a SMILES comes first, the peptide text is derived from it. Bridges are numbered along the chain shown (N, C = ends). [ ]: non-standard residue; d: D form. X6 = O=C([C@H](Cc1c[nH]c2c(-c3cccc(OC(F)(F)F)c3)cccc12)N[*:1])[*:2]; X3 = Cc1cccc(-c2cccc3c(C[C@H](N[*:1])C(=O)[*:2])c[nH]c23)c1; Trp(7-Ph) = N[C@@H](Cc1c[nH]c2c(-c3ccccc3)cccc12)C(=O)O; Abu(4-yl) = O=C([C@H](CC[*:3])N[*:1])[*:2]; 2Nal = N[C@@H](Cc1ccc2ccccc2c1)C(=O)O; Trp(7-thienyl) = 7-thienyl-tryptophan; AEF = NCCOc1ccc(C[C@H](N)C(=O)O)cc1; Pen = CC(C)(S)[C@H](N)C(=O)O; αMeK = C[C@](N)(CCCCN)C(=O)O; Abu = CC[C@H](N)C(=O)O Bounds are passed on as bounds.

With `CC(=O)NCCCC[C@@H]1NC(=O)[C@H](Cc2c[nH]c3c(-c4ccccc4)cccc23)NC(=O)[C@H]([C@@H](C)O)NC(=O)[C@H](CC(N)=O)NC(=O)[C@@H](NC(C)=O)C(C)(C)SSC(C)(C)[C@@H](C(=O)N[C@@H](Cc2ccc(OCCN)cc2)C(=O)N[C@@H](Cc2ccc3ccccc3c2)C(=O)N[C@@](C)(CCCCN)C(=O)N[C@@H](CCCCNC(C)=O)C(=O)N[C@@H](CC(N)=O)C(=O)N[C@H](CC(C)C)C(N)=O)NC1=O` [Peptide 1, Ac-[Pen]-N-T-[W(7-Ph)]-[Lys(Ac)]-[Pen]-Phe[4-(2-aminoethoxy)]-[2-Nal]-[a-MeLys]-[Lys(Ac)]-N-[(D)Leu]-NH2], the half-life at 20 μM in the data set “Stability in rat plasma” is > 24 h; in data set [1], > 24 h; in data set [2], > 24 h; in data set [4] it was 11.1 h. In addition, it took 4.3 nM to reach half-maximal inhibition in data set [3] (IC50).
Take `CC(=O)NCCCC[C@@H]1NC(=O)[C@H](Cc2c[nH]c3c(-c4cccc(C)c4)cccc23)NC(=O)[C@H]([C@@H](C)O)NC(=O)[C@H](CC(N)=O)NC(=O)[C@@H](NC(C)=O)C(C)(C)SSC(C)(C)[C@@H](C(=O)N[C@@H](Cc2ccc(OCCN)cc2)C(=O)N[C@@H](Cc2ccc3ccccc3c2)C(=O)N[C@@](C)(CCCCN)C(=O)N[C@@H](CCCCNC(C)=O)C(=O)N[C@@H](CC(N)=O)C(=O)N[C@H](CCCCN)C(N)=O)NC1=O` [Peptide 7, Ac-[Pen]-N-T-[W(7-(3-MePh))]-[Lys(Ac)]-[Pen]-Phe[4-(2-aminoethoxy)]-[2-Nal]-[a-MeLys]-[Lys(Ac)]-N-[(D)Lys)]-NH2] (Ac-[Pen]NT[X3]K(Ac)[Pen][AEF][2Nal][αMeK]K(Ac)N[dK]-NH2; disulfide 1-6): the half-life at 20 μM (in the data set “Stability in rat plasma”; in data set [1]; in data set [2]) was > 24 h each time. The molecule further displayed an IC50 in data set [3] of 5.87 nM. Besides, the “SIF t1/2” value in data set [4] is 24 h.
Take `CC(=O)NCCCC[C@@H]1NC(=O)[C@H](Cc2c[nH]c3c(-c4cccc(OC(F)(F)F)c4)cccc23)NC(=O)[C@H]([C@@H](C)O)NC(=O)[C@H](CC(N)=O)NC(=O)[C@@H](NC(C)=O)C(C)(C)SSC(C)(C)[C@@H](C(=O)N[C@@H](Cc2ccc(OCCN)cc2)C(=O)N[C@@H](Cc2ccc3ccccc3c2)C(=O)N[C@@](C)(CCCCN)C(=O)N[C@@H](CCCCNC(C)=O)C(=O)N[C@@H](CC(N)=O)C(=O)N[C@H](CCCCN)C(N)=O)NC1=O` [Peptide 12, Ac-[Pen]-N-T-[W(7-(3-OCF3Ph))]-[Lys(Ac)]-[Pen]-Phe[4-(2-aminoethoxy)]-[2-Nal]-[a-MeLys]-[Lys(Ac)]-N-[(D)Lys)]-NH2] (Ac-[Pen]NT[X6]K(Ac)[Pen][AEF][2Nal][αMeK]K(Ac)N[dK]-NH2; disulfide 1-6): the half-life at 20 μM in the data set “Stability in rat plasma” is > 24 h; in data set [1], > 6 h; in data set [2] it was > 24 h. Moreover, the “SIF t1/2” value in data set [4] was 24 h.
As for `CC(=O)NCCCC[C@@H]1NC(=O)[C@H](Cc2c[nH]c3c(-c4ccccc4)cccc23)NC(=O)[C@H]([C@@H](C)O)NC(=O)[C@H](CCC(N)=O)NC(=O)[C@@H](NC(C)=O)CCSC[C@@H](C(=O)N[C@@H](Cc2ccc(OCCN)cc2)C(=O)N[C@@H](Cc2ccc3ccccc3c2)C(=O)N[C@@](C)(CCCCN)C(=O)N[C@@H](CCCCNC(C)=O)C(=O)N[C@@H](CC(N)=O)C(=O)N[C@H](CCCCN)C(N)=O)NC1=O` [Peptide 19, Ac-[Abu]-Q-T-[W(7-Ph)]-[Lys(Ac)]-[Cys]-Phe[4-(2-aminoethoxy)]-[2-Nal]-[a-MeLys]-[Lys(Ac)]-N-[(D)Lys]-NH2] (Ac-[Abu(4-yl)]QT[Trp(7-Ph)]K(Ac)C[AEF][2Nal][αMeK]K(Ac)N[dK]-NH2; thioether 1-6), the half-life at 20 μM in “Stability in rat plasma” was > 24 h; in data set [1] it was 21.8 h; in data set [2], > 24 h; in data set [4] it was 17.8 h.

B1: Peptide No. 19 (SEQ ID No. 19) (peptide)
peptide: Ac-[Abu]QT[Trp(7-Ph)]K(Ac)C[AEF][2Nal][αMeK]K(Ac)N[dK]-NH2
modifications: thioether 1-6
B1: the “pStat3 HTRF IC50 (DB cells IL23R pSTAT3 cell assay, 0.5 nM IL-23)” value (“pStat3 HTRF IC50” for short) in data set [5] stood at 2.57 nM.

B2: Peptide No. 2 (SEQ ID No. 2) (peptide)
peptide: Ac-[Pen]NT[Trp(7-thienyl)]Q[Pen][AEF][2Nal][αMeK]K(Ac)N[dK]-NH2
modifications: disulfide 1-6
B2: the “pStat3 HTRF IC50” value in data set [5] turned out to be 1.21 nM.

B3: Peptide No. 3 (SEQ ID No. 3) (peptide)
peptide: Ac-[dR][Abu]QT[Trp(7-Ph)]K(Ac)C[AEF][2Nal][αMeK]K(Ac)N[dL]-NH2
modifications: thioether 2-7
With B3, the “pStat3 HTRF IC50” value in data set [5] is 9.42 nM.

B4: Peptide No. 5 (SEQ ID No. 5) (peptide)
peptide: Ac-[dR][Abu]QT[Trp(7-Ph)]K(Ac)C[AEF][2Nal][αMeK]K(Ac)N[dK]-NH2
modifications: thioether 2-7
Consider B4, for which the “pStat3 HTRF IC50” value in data set [5] is 8.53 nM.

B5: Peptide No. 4 (SEQ ID No. 4) (peptide)
peptide: Ac-[dR][Abu]QT[Trp(7-Ph)]K(Ac)C[AEF][2Nal][αMeK]K(Ac)N-NH2
modifications: thioether 2-7
On to B5, for which the “pStat3 HTRF IC50” value in data set [5] amounted to 49.4 nM.

By IC50 is commonly meant the concentration that gives 50% inhibition.

The values above are taken from patent US20230129095A1, “PEPTIDE INHIBITORS OF INTERLEUKIN-23 RECEPTOR AND THEIR USE TO TREAT INFLAMMATORY DISEASES” (Protagonist Therapeutics, Inc., priority 2020, published 2023).
